Reference: patent publication US12648986B2, “PLD for use in combination in the treatment of coronavirus” (PHARMA MAR, S.A., priority 2020, dated 2026)
Like-named read-outs stand apart in the source and are kept apart here.

Key:
SARS-CoV-2 [1] = experiment: Cytopathic effect on Vero E6 cells exposed to SARS-CoV-2 (CellTiter-Glo); type: cell-based; conditions: for IC50: read-out: mean IC50 value and SD, SARS-CoV-2-induced cytopathic effect
SARS-CoV-2 [2] = experiment: Vero E6 cells infected with SARS-CoV-2, direct quantitation of nucleocapsid (N) protein; type: cell-based; conditions: Severe acute respiratory syndrome coronavirus 2, Vero C1008, two studies, read-out: IC50, SARS-CoV-2 growth in vitro
SARS-CoV-2 [3] = experiment: K18-hACE2 transgenic mice infected with SARS-CoV-2; type: in vivo
SARS-CoV-2 [4] = experiment: SARS-CoV-2 replication in human stem cell-derived pneumocyte like cells; type: cell-based; conditions: 10 nM plitidepsin for 1 hour before infection, 48 hour incubation
Experimental: Several in vitro experiments aimed at determining the effect of plitidepsin on SARS-CoV-2 were carried out and are disclosed herein. […] In another study, human stem cell-derived pneumocyte like cells were prophylactically exposed to 10 nm plitidepsin for 1 hour and then infected with SARS-CoV-2 (4×10^4 plaque forming units). After a 48 hour incubation period, both antiviral and cytotoxic plitidepsin effects were determined.

[5] = test system: human stem cell-derived pneumocyte like cells; conditions: 10 nm plitidepsin, 48 hour incubation
SARS-CoV-2 [6] = experiment: Mouse model of adenovirus-mediated hACE2 infected with SARS-CoV-2; type: in vivo
CD45+ cells = experiment: Ex vivo cytokine expression in CD45+ cells from broncho-alveolar lavages of mice, LPS-B5 stimulation; conditions: cells from plitidepsin treated mice
Source text: An ex vivo study assessed the effect of plitidepsin on expression of the cytokines IL 6, IL 10, and TNFα in the lungs of mice.

eEF1A = eEF1A (Oryctolagus cuniculus, UniProt Q71V39); experiment: Binding of 14C-plitidepsin to purified eEF1A; conditions: eEF1A purified from rabbit muscle
eEF1A, sequence (Q71V39 whole entry): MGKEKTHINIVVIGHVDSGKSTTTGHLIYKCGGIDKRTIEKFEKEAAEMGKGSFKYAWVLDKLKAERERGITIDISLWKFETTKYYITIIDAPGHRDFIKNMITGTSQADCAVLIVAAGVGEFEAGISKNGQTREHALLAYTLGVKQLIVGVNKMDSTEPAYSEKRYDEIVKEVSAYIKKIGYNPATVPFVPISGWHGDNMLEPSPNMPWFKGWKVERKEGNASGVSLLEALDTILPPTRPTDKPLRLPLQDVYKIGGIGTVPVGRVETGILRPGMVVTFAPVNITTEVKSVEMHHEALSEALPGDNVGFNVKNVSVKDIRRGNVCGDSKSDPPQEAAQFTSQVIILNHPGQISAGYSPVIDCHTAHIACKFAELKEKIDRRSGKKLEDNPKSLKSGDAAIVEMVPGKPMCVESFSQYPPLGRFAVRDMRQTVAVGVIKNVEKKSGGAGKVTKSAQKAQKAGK

[7] = Severe acute respiratory syndrome coronavirus 2, Vero C1008, 72 h

MDL28170 [MDL 28170]
cytotoxic effects of the drug at concentrations inhibiting viral-induced cytopathic effect (Vero E6 cells; Vero E6, absence of virus): no cytotoxicity of the drug was observed | IC50 (SARS-CoV-2 [1]; Vero E6, single drug, 3 days post infection, independent experiments with two replicates each): 140 ± 60 nM

nelfinavir mesylate hydrate
cytotoxic effects of the drug at concentrations inhibiting viral-induced cytopathic effect (Vero E6 cells): no cytotoxicity of the drug was observed | capacity to inhibit SARS-CoV-2-induced cytopathic effect (SARS-CoV-2 [1]; Vero E6, 100 μM to 0.0512 nM): confirmed to have in vitro capacity to inhibit SARS-CoV-2-induced cytopathic effect

CCN(CCO)CCCC(C)Nc1ccnc2cc(Cl)ccc12 (stereo not shown) [Hydroxychloroquine, hydroxychloroquine]
cytotoxic effects of the drug at concentrations inhibiting viral-induced cytopathic effect (Vero E6 cells; Vero E6, absence of virus): no cytotoxic effects of the drug were observed | IC50 (SARS-CoV-2 [1]; [7]): 9300 ± 11100 nM

CC[C@H](C)[C@H]1NC(=O)[C@@H](NC(=O)[C@@H](CC(C)C)N(C)C(=O)[C@@H]2CCCN2C(=O)C(C)=O)[C@@H](C)OC(=O)[C@H](Cc2ccc(OC)cc2)N(C)C(=O)[C@@H]2CCCN2C(=O)[C@H](CC(C)C)NC(=O)[C@@H](C)C(=O)[C@H](C(C)C)OC(=O)C[C@@H]1O [PLD, (−)-(3S,6R,7S,10R,11S,15S,17S,20S,25aS)-11-hydroxy-3-(4-methoxybenzyl)-2,6,17-trimethyl-15-(1-methylethyl)-7-[[(2R)-4-methyl-2-[methyl[[(2S)-1-(2-oxopropanoyl)pyrrolidin-2-yl]carbonyl]amino]pentanoyl]amino]-10-[(1S)-1-methylpropyl]-20-(2-methylpropyl)tetradecahydro-15H-pyrrolo[2,1-f]-[1,15,4,7,10,20]dioxatetrazacyclotricosine-1,4,8,13,16,18,21(17H)-heptaone]
IC50 (SARS-CoV-2 [2]): 0.7 to 3 nM | cytotoxic effects of the drug at concentrations inhibiting viral-induced cytopathic effect (Vero E6 cells; Vero E6, absence of virus): no cytotoxic effects of the drug were observed | antiviral effects in vivo (SARS-CoV-2 [3]): potent antiviral effects | IC50 (SARS-CoV-2 [1]; [7]): 51 ± 20 nM | replication of SARS-CoV-2 (SARS-CoV-2 [4]): completely eliminated replication of SARS-CoV-2 | cytotoxicity against pneumocyte like cells [5]: no observable cytotoxicity | antiviral effects in vivo (SARS-CoV-2 [6]): potent antiviral effects | IL 6, IL 10 and TNFα in CD45+ cells upon LPS-B5 stimulation vs nonstimulated controls (CD45+ cells): failed to show a marked increase | affinity for eEF1A (eEF1A): high affinity | rate of dissociation from eEF1A (eEF1A): low rate of dissociation
